PMC12259270, “Sensory neuron–expressed FGF13 controls nociceptive signaling in diabetic neuropathy models” (The Journal of Clinical Investigation, 2025)
Values joined by “and” are separate entries in the source; they are usually repeats but may differ in a detail not shown here. Equal values may be shown once. Residues, ends and D or L forms follow the SMILES beside them. *: point of attachment. NHPh = c1ccc(N*)cc1

Target: T1, human Nav1.7 (Homo sapiens, UniProt Q15858)
T1 construct: expressed in transfected cells; host or cells: HEK293 stably expressing human Nav1.7
T1 sequence (Q92913 1-192 partner limits assumed): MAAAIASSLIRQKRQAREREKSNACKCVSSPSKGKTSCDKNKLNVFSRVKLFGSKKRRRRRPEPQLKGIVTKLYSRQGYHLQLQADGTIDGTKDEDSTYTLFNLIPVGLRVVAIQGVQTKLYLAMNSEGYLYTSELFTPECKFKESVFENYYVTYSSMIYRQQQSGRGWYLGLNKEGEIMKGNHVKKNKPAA
T1 sequence (Q15858 1-1977 isoform Q15858-3): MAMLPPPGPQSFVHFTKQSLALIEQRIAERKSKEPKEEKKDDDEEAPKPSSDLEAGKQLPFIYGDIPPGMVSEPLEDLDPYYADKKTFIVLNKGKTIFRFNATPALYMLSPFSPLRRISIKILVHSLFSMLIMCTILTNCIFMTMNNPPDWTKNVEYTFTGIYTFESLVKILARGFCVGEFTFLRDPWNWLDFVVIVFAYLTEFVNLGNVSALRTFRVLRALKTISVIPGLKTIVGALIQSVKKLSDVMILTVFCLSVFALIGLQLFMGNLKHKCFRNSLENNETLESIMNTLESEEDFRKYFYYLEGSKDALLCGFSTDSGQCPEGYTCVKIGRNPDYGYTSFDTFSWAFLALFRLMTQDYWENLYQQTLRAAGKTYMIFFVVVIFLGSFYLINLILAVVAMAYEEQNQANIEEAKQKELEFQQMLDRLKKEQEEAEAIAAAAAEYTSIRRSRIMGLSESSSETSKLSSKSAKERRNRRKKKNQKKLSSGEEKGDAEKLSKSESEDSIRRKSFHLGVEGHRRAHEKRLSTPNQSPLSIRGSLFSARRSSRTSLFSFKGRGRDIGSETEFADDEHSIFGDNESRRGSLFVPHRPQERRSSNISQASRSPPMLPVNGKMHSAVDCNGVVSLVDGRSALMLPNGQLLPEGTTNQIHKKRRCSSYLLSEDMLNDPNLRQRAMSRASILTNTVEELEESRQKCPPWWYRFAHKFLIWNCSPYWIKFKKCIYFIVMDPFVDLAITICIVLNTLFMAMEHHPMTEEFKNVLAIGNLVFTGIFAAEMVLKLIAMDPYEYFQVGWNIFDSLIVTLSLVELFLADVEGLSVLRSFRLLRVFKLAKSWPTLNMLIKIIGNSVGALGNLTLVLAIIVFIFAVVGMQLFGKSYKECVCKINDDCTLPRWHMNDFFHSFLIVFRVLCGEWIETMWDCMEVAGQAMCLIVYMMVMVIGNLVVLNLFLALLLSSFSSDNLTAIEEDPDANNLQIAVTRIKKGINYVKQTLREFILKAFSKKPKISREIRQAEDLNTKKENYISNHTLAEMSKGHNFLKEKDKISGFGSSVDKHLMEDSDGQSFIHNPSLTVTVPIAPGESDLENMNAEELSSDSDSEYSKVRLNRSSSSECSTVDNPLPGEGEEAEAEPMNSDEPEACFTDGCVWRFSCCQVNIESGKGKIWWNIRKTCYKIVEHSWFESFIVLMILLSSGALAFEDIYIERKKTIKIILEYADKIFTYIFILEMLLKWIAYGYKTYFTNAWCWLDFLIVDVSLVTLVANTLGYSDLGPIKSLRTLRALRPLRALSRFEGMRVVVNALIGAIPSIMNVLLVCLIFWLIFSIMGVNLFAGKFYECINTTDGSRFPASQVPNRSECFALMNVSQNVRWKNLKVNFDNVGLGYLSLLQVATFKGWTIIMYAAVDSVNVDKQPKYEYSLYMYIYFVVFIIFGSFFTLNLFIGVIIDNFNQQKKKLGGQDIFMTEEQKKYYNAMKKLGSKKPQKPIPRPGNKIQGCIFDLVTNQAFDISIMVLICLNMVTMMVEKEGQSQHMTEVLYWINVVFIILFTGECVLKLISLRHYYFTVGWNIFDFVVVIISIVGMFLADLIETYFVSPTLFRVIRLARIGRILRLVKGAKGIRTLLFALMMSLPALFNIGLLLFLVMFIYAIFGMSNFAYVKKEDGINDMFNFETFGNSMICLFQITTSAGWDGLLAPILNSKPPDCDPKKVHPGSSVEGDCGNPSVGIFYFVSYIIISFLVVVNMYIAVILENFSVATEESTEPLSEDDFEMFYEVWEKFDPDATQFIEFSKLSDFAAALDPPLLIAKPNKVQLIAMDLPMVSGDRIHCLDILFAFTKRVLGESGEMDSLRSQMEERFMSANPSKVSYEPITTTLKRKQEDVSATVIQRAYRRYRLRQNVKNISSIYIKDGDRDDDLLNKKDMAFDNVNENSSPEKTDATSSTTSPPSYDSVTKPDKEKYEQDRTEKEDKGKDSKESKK
Test: Whole-cell patch-clamp, HEK293 cells stably expressing human Nav1.7 with GFP or FGF13-GFP
Format: cell-based
Set-up: Nav1.7 repriming time course, Mean / Figure 4I, Mean versus Time (ms): unit not given here
Settings: for Figure 4G, Mean per step (normalized): N 10; for Figure 4H, Mean per step (step 1 = 100): N 9
Method: Whole-cell patch clamp electrophysiology
HEK293-Nav1.7 cells, HEK293 stably expressing human Nav1.6 (HEK-Nav1.6), HEK293 stably expressing human Nav1.5 (HEK-Nav1.5), human hIPSC-derived sensory neurons (RealDRGTM from Anatomic Incorporated 1020F1-1M) and donor-derived DRG neurons were plated at low density on glass coverslips and processed for whole-cell patch clamp electrophysiology in voltage-clamp and/or current clamp mode. Whole-cell patch electrophysiological experiments were conducted following previously published studies (26). Current densities were obtained by dividing INa amplitude by membrane capacitance. Current –voltage relationships were generated by plotting current density as a function of the […]. Conductance (G Na) was calculated by the […]
where INa is the current amplitude at voltage Vm, and Erev is the Na+ reversal potential.
Activation curves were derived by plotting normalized GNa as a function of test potential and fitted using […]
Where GNa,Max is the maximum conductance, Va is the membrane potential of half-maximal activation, Em is the membrane voltage and k is the slope factor. For steady -state inactivation, normalized current amplitude (INa/INa,Max) at the test potential was plotted as a function of prepulse potential (Vm) and fitted using the […]
Where Vh is the potential of half-maximal inactivation, E m is the membrane voltage, and k is the slope factor.
Transient INa inactivation decay was estimated with the standard exponential equation. Inactivation time constant (tau, τ) was fitted with the following equation: […]
where I(t) is the amplitude of the current at time t and Iss is the steady-state current during a single voltage-step.
The goodness of fitting was determined by correlation coefficient (R), and the cutoff of R was set at 0.85. To observe effects on long-term inactivation (LTI), a four-step protocol was employed during which cells were subjected to four 0 mV, 20 ms depolarization pulses separated by −90 mV, 40 ms recovery intervals. To control for various cell sizes, the current densities were calculated by dividing INa peak current amplitude/membrane capacitance (Cm). To represent the fraction of channels entering into LTI, the peak INa observed during depolarization cycles 2-4 was normalized to the peak INa observed during depolarization cycle 1 (INa/INa,Cycle 1) and plotted as a function of the depolarization cycle.
The cumulative (frequency-dependent) use-dependency was determined by applying 20 pulses with a depolarization to −10 mV (50 ms duration) and 50 ms recovery intervals with a train of 20 pulses at 10 Hz from a holding potential at -70 mV. The current pulses were normalized to the first reco rded pulse and the currents at the 2nd to 20th pulses were compared. The same train was used to record use-dependency at various frequencies […]
The rate of recovery from inactivation was recorded at -80 mV with a standard repriming voltage protocol.
The cells were prepulsed to -20 mV for 20 ms to inactivate all currents, then driven back to the recovery potential (Vrec) for increasing recovery durations before the test pulse to 0 mV. The maximum pulse rate was 0.5 Hz. The […]
follows previous publications (16). The time constants were estimated from single exponential decay to time courses measured at recovery potentials ranging from -140 to -60 mV with the protocol as mentioned above.
Electrophysiological Recordings
HEK293 cells: Electrophysiological recordings in HEK293 stably expressing Nav1.7 (HEK-Nav1.7), Nav1.5 (HEK-Nav1.5) or Nav1.6 (HEK-Nav1.6) were performed at room temperature using a MultiClamp 700B or an Axopatch 200B amplifier (Molecular Devices) after incubating coverslips for 60 minutes either with 0.1% DMSO or 50 μM PW164 or ZL192 in the extracellular solution. The composition of recording solutions consisted of the […]
following salts: extracellular (mM): 140 NaCl, 3 KCl, 1 MgCl2, 1 CaCl2, 10 HEPES, 10 glucose, pH 7.3; […]
intracellular (mM): 130 CH3O3 SCs, 1 EGTA, 10 NaCl, 10 HEPES, pH 7.3. […]

Structure (SMILES): CC(=O)N[C@@H](Cc1ccccc1)C(=O)N[C@@H](CC(C)C)C(=O)N1CCC[C@H]1C(=O)N[C@@H](CCCCN)C(=O)Nc1ccccc1 [ZL192] (Ac-FLPK-NHPh)
- Figure 4G, Mean per step (normalized) (Nav1.7 + FGF13-GFP, Steps 20): 0.8672
- Figure 4I, Mean versus Time (ms) (Nav1.7 + FGF13-GFP, Time (ms) 2, N 7): -2.382
- Figure 4I, Mean versus Time (ms) (Nav1.7 + FGF13-GFP, Time (ms) 5, N 7): -10.2316
- Figure 4I, Mean versus Time (ms) (Nav1.7 + FGF13-GFP, Time (ms) 9, N 7): -21.032
- Figure 4I, Mean versus Time (ms) (Nav1.7 + FGF13-GFP, Time (ms) 17, N 7): -28.22
- Figure 4I, Mean versus Time (ms) (Nav1.7 + FGF13-GFP, Time (ms) 33, N 7): -35.2152
- Figure 4I, Mean versus Time (ms) (Nav1.7 + FGF13-GFP, Time (ms) 65, N 7): -41.6453
- Figure 4I, Mean versus Time (ms) (Nav1.7 + FGF13-GFP, Time (ms) 129, N 7): -47.08
- Figure 4I, Mean versus Time (ms) (Nav1.7 + FGF13-GFP, Time (ms) 257, N 7): -58.7924
- Figure 4I, Mean versus Time (ms) (Nav1.7 + FGF13-GFP, Time (ms) 513, N 7): -60.0808
- Figure 4I, Mean versus Time (ms) (Nav1.7 + FGF13-GFP, Time (ms) 1025, N 7): -61.473
- Figure 4I, Mean versus Time (ms) (Nav1.7 + FGF13-GFP, Time (ms) 2000, N 7): -62.66
- Current density pA/pF (Figure 4D), individual cells (Nav1.7 + GFP): -42.7131 pA/pF and -116.886 pA/pF and -86.2507 pA/pF and -55.3628 pA/pF and -87.5203 pA/pF and -98.7467 pA/pF and -44.4757 pA/pF and -64.4298 pA/pF and -57.1752 pA/pF and -107.666 pA/pF and -47.813 pA/pF
- Figure 4H, Mean per step (step 1 = 100) (Nav1.7 + GFP, Steps 1): 100
- Figure 4G, Mean per step (normalized) (Nav1.7 + GFP, Steps 1): 1
- Figure 4H, Mean per step (step 1 = 100) (Nav1.7 + GFP, Steps 2): 67.9415
- Figure 4H, Mean per step (step 1 = 100) (Nav1.7 + GFP, Steps 3): 62.3546
- Figure 4G, Mean per step (normalized) (Nav1.7 + GFP, Steps 3): 0.8342
- Figure 4H, Mean per step (step 1 = 100) (Nav1.7 + GFP, Steps 4): 60.931
- Figure 4G, Mean per step (normalized) (Nav1.7 + GFP, Steps 5): 0.7578
- Figure 4G, Mean per step (normalized) (Nav1.7 + GFP, Steps 10): 0.7548
- Figure 4G, Mean per step (normalized) (Nav1.7 + GFP, Steps 15): 0.7445
- Figure 4G, Mean per step (normalized) (Nav1.7 + GFP, Steps 20): 0.751
- Figure 4I, Mean versus Time (ms) (Nav1.7 + GFP, Time (ms) 2, N 6): -1.684
- Figure 4I, Mean versus Time (ms) (Nav1.7 + GFP, Time (ms) 5, N 6): -3.032
- Figure 4I, Mean versus Time (ms) (Nav1.7 + GFP, Time (ms) 9, N 6): -5.9665
- Figure 4I, Mean versus Time (ms) (Nav1.7 + GFP, Time (ms) 17, N 6): -10.1843
- Figure 4I, Mean versus Time (ms) (Nav1.7 + GFP, Time (ms) 33, N 6): -13.6758
- Figure 4I, Mean versus Time (ms) (Nav1.7 + GFP, Time (ms) 65, N 6): -16.716
- Figure 4I, Mean versus Time (ms) (Nav1.7 + GFP, Time (ms) 129, N 6): -20.6484
- Figure 4I, Mean versus Time (ms) (Nav1.7 + GFP, Time (ms) 257, N 6): -23.8114
- Figure 4I, Mean versus Time (ms) (Nav1.7 + GFP, Time (ms) 513, N 6): -25.3409
- Figure 4I, Mean versus Time (ms) (Nav1.7 + GFP, Time (ms) 1025, N 6): -26.7193
- Figure 4I, Mean versus Time (ms) (Nav1.7 + GFP, Time (ms) 2000, N 6): -29.0414
